11 molecules from US11168079B2, “Alkene compounds as farnesoid x receptor modulators” (BRISTOL-MYERS SQUIBB COMPANY, priority 2017, dated 2021) can be followed below.

Assay [1] deals with Fgf15. Briefly: Acute mouse in vivo assay (PK/PD): Fgf15 gene expression in ileum. To be noted: for Fgf15 (fold change@ 6 h relative to Vehicle): Mouse PD. Here is the method: (§1) Acute Mouse In Vivo Assay:
(§2) Male, C57BL6/NTac mice, weighing 25-28 g, are purchased from Taconic Labs (Hudson, N.Y.) and maintained on Teklad Global 18% Protein Rodent Diet (Harlan Laboratories). After 1 week acclimation, mice are sorted into groups based upon body weight. Mice are administered a single oral dose of vehicle or experimental compound. Systemic compound exposure is evaluated in plasma derived from blood collected via the submandibular vein at 1 hour post-dose, and at study termination (6 h). At study termination, the animals are euthanized and rapidly dissected. The medial lobe of the liver is divided, with one half being homogenized and analyzed for compound exposure, and the other half saved in RNAlater (Thermo-Fisher Scientific). The ileum is also dissected and preserved in RNAlater. Tissue samples in RNAlater are homogenized with MP Biomedicals' beads. RNA is extracted using the MagMax-96 Total RNA Isolation kit (Thermo-Fisher Scientific) according to the manufacturer's protocol. RNA Concentration is determined with the Nano-Drop 8000 Spectrophotometer (Thermo Fisher). […] Mouse genes analyzed include Nr0b2 (which encodes the small heterodimer partner, SHP), Abcb11 (which encodes the bile salt excretion pump, BSEP), Cyp7a1, & Cyp8b1 in liver, and Fgf15, Fabp6 (which encodes ileal bile acid binding protein, I-BABP), Slc51a (which encodes organic solute transporter alpha subunit, OSTA), and Slc51 b (which encodes organic solute transporter beta subunit, OSTB) in the ileum. The statistical significant changes in FGF15 gene expression are expressed as fold increase and CYP7A1 expression as a percent reduction relative to vehicle control. […]
(§3) Male, C57BL6/NTac mice, weighing 25-28 g, are purchased from Taconic Labs (Hudson, N.Y.) and maintained on Teklad Global 18% Protein Rodent Diet (Harlan Laboratories). […] Systemic compound exposure is evaluated in plasma derived from blood collected via the submandibular vein at 1 hour post-dose, and at study termination (6 h). […] RNA Concentration is determined with the Nano-Drop 8000 Spectrophotometer (Thermo Fisher). […]

In assay [2] the target is T1, human FXR (Homo sapiens, UniProt Q96RI1).
T1 sequence (Q96RI1 262-486 limits assumed): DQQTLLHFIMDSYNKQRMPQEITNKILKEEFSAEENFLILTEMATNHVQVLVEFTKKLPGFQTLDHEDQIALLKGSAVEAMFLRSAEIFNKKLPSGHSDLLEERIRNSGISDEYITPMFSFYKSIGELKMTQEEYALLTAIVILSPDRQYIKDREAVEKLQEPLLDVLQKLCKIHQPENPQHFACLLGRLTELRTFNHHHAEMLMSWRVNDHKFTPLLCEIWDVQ
Briefly: transient human FXR/Gal4-luciferase reporter assay (HLE GAL-FXR). The following applies: FXR EC50 (nM), Gal4-hFXR fusion reporter, HEK293 cells; Table 1. A general note: A reporter such as luciferase makes a cellular process visible.

In assay [3] the test system is Cyp7a1. Briefly: Acute mouse in vivo assay (PK/PD): Cyp7a1 gene expression in liver. The following applies: for Cyp7a1 (fold change@ 6 h relative to Vehicle): Mouse PD. As to the method:
as §1, §2, §3

For orientation: EC50 means the concentration needed to bring the measured effect to its halfway point. A higher EC50 goes with weaker potency. With `O=C(O)c1cc2ccc(N3CCC(/C=C/c4c(-c5c(Cl)cncc5Cl)noc4C4CC4)CC3)cc2cn1` [Example 101], in assay [1] (dose 3 mg/kg), the “Fgf15 (fold change@ 6 h relative to Vehicle)” value came to 21. The EC50 in assay [2] is 47 nM. For the same molecule, the “Cyp7a1 (fold change@ 6 h relative to Vehicle)” value in assay [3] (dose 3 mg/kg) came out at 0.06.
As for `O=C(O)c1ncc(N2CCC(/C=C/c3c(-c4c(Cl)cccc4Cl)noc3C3CC3)CC2)cn1` [Example 27], the “Fgf15 (fold change@ 6 h relative to Vehicle)” value in assay [1] (dose 30 mg/kg) was found to be 2.8. The same molecule came in with a 50% effective concentration (EC50) in assay [2] of 2330 nM. Besides, the “Cyp7a1 (fold change@ 6 h relative to Vehicle)” value in assay [3] (dose 30 mg/kg) is on record as 0.10.
Regarding `O=C(O)c1cc(F)c2nc(N3CCC(/C=C/c4c(-c5c(Cl)cccc5Cl)noc4C4CC4)CC3)sc2c1` [Example 14], the “Mouse in vivo FgF15” value in assay [1] (30 mg/kg, @ 6 h, single oral dose, fold increase relative to vehicle control) is 10 x. Moreover, the “Mouse in vivo Cyp7a1” value in assay [3] (30 mg/kg, @ 6 h, single oral dose, percent reduction relative to vehicle control) is listed as −96%.
As to `Cn1nc(C(=O)O)c2ccc(N3CCC(/C=C/c4c(-c5c(Cl)cccc5Cl)noc4C4CC4)CC3)cc21` [Example 41], in assay [2], the response was half-maximal at 236 nM (EC50).
Same read-out and setting: in the case of `O=C(O)c1cccc(-c2nc(N3CC4C(/C=C/c5c(-c6c(Cl)cncc6Cl)noc5C5CC5)C4C3)no2)c1` (stereo not shown) [Example 117] it was 494 nM.
The same measure, in the same setting: the value for `CCn1cc(C(=O)O)c(=O)c2ccc(N3CC4C(/C=C/c5c(-c6ccccc6C(F)(F)F)noc5C5CC5)C4C3)cc21` (stereo not shown) [Example 192] was 132 nM; that for `CC(C)Oc1cc(C(=O)O)nc2ccc(N3CC4C(/C=C/c5c(-c6c(Cl)cncc6Cl)noc5C5CC5)C4C3)cc12` (stereo not shown) [Example 109] was 25 nM; that for `O=C(O)c1cc(OC2CCC2)c2cc(N3CC4C(/C=C/c5c(-c6cccnc6C(F)(F)F)noc5C5CC5)C4C3)ccc2n1` (stereo not shown) [Example 142] was 54 nM.
Still for that read-out and setting: the value for `O=C(O)c1cc(O[C@H]2C[C@@H](F)C2)c2cc(N3CC4C(/C=C/c5c(-c6c(Cl)cncc6Cl)noc5C5CC5)C4C3)ccc2n1` (stereo partly shown) [Example 203] was 16 nM; that for `CC(C)Oc1cc(C(=O)O)nc2ccc(N3CCC(/C=C/c4c(-c5ccccc5OC(F)(F)F)noc4C4CC4)CC3)cc12` [Example 108] was 22 nM; that for `O=C(O)c1cc(OC(F)F)c2cc(N3CCC(/C=C/c4c(-c5cccnc5C(F)(F)F)noc4C4CC4)CC3)ccc2n1` [Example 98] was 3 nM.
